The source of these data is patent US8536195B2, “Bicyclic derivatives as modulators of ion channels” (Vertex Pharmaceuticals Incorporated, priority 2005, dated 2013).

Like-named read-outs stand apart in the source and are kept apart here.

For experiment [1], the target named is T1, NaV1.3 (Homo sapiens, UniProt Q9NY46). In words: Activity against NaV 1.3 channel (VIPR optical membrane potential assay with electrical stimulation). The format is cell-based. Also on record: expressed in transfected cells; host or cells: HEK293. The method, then:
Compounds of the invention are useful as antagonists of voltage-gated sodium ion channels. Antagonist properties of test compounds were assessed as follows. Cells expressing the NaV of interest were placed into microtiter plates. After an incubation period, the cells were stained with fluorescent dyes sensitive to the transmembrane potential. The test compounds were added to the microtiter plate. The cells were stimulated with either a chemical or electrical means to evoke a NaV dependent membrane potential change from unblocked channels, which was detected and measured with trans-membrane potential-sensitive dyes. Antagonists were detected as a decreased membrane potential response to the stimulus. The optical membrane potential assay utilized voltage-sensitive FRET sensors described by Gonzalez and Tsien (See Gonzalez, J. E. and R. Y. Tsien (1995) “Voltage sensing by fluorescence resonance energy transfer in single cells” Biophys J 69(4): 1272-80, and Gonzalez, J. E. and R. Y. Tsien (1997) “Improved indicators of cell membrane potential that use fluorescence resonance energy transfer” Chem Biol 4(4): 269-77) in combination with instrumentation for measuring fluorescence changes such as the Voltage/Ion Probe Reader (VIPR®) (See Gonzalez, J. E., K. Oades, et al. (1999) “Cell-based assays and instrumentation for screening ion-channel targets” Drug Discov Today 4(9): 431-439).
The following is an example of how NaV1.3 inhibition activity is measured using the optical membrane potential method #2. Other subtypes are performed in an analogous mode in a cell line expressing the NaV of interest.
HEK293 cells stably expressing NaV1.3 are plated into 96-well microtiter plates. After an appropriate incubation period, the cells are stained with the voltage sensitive dyes CC2-DMPE/DiSBAC2(3) as follows.
2×CC2-DMPE=20 μM CC2-DMPE: 10 mM CC2-DMPE is vortexed with an equivalent volume of 10% pluronic, followed by vortexing in required amount of HBSS containing 10 mM HEPES. Each cell plate will require 5 mL of 2×CC2-DMPE. 50 μL of 2×CC2-DMPE is to wells containing washed cells, resulting in a 10 μM final staining concentration. The cells are stained for 30 minutes in the dark at RT.
2×DISBAC2(3) with ABSC1=6 μM DISBAC2(3) and 1 mM ABSC1: The required amount of 10 mM DISBAC2(3) is added to a 50 ml conical tube and mixed with 1 μL 10% pluronic for each mL of solution to be made and vortexed together. Then HBSS/HEPES is added to make up 2× solution. Finally, the ABSC1 is added.
The 2×DiSBAC2(3) solution can be used to solvate compound plates. Note that compound plates are made at 2× drug concentration. Wash stained plate again, leaving residual volume of 50 μL. Add 50 uL/well of the 2×DiSBAC2(3) w/ABSC1. Stain for 30 minutes in the dark at RT.
The electrical stimulation instrument and methods of use are described in ION Channel Assay Methods PCT/US01/21652, herein incorporated by reference. The instrument comprises a microtiter plate handler, an optical system for exciting the coumarin dye while simultaneously recording the coumarin and oxonol emissions, a waveform generator, a current- or voltage-controlled amplifier, and a device for inserting electrodes in well. Under integrated computer control, this instrument passes user-programmed electrical stimulus protocols to cells within the wells of the microtiter plate.
Insert or use electrodes into each well to be assayed.
Use the current-controlled amplifier to deliver stimulation wave pulses for 3 s. Two seconds of pre-stimulus recording are performed to obtain the un-stimulated intensities. Five seconds of post-stimulation recording are performed to examine the relaxation to the resting state.
Data are analyzed and reported as normalized ratios of background-subtracted emission intensities measured in the 460 nm and 580 nm channels. Background intensities are then subtracted from each assay channel. […]
Target sequence in this assay (Q9NY46 whole entry): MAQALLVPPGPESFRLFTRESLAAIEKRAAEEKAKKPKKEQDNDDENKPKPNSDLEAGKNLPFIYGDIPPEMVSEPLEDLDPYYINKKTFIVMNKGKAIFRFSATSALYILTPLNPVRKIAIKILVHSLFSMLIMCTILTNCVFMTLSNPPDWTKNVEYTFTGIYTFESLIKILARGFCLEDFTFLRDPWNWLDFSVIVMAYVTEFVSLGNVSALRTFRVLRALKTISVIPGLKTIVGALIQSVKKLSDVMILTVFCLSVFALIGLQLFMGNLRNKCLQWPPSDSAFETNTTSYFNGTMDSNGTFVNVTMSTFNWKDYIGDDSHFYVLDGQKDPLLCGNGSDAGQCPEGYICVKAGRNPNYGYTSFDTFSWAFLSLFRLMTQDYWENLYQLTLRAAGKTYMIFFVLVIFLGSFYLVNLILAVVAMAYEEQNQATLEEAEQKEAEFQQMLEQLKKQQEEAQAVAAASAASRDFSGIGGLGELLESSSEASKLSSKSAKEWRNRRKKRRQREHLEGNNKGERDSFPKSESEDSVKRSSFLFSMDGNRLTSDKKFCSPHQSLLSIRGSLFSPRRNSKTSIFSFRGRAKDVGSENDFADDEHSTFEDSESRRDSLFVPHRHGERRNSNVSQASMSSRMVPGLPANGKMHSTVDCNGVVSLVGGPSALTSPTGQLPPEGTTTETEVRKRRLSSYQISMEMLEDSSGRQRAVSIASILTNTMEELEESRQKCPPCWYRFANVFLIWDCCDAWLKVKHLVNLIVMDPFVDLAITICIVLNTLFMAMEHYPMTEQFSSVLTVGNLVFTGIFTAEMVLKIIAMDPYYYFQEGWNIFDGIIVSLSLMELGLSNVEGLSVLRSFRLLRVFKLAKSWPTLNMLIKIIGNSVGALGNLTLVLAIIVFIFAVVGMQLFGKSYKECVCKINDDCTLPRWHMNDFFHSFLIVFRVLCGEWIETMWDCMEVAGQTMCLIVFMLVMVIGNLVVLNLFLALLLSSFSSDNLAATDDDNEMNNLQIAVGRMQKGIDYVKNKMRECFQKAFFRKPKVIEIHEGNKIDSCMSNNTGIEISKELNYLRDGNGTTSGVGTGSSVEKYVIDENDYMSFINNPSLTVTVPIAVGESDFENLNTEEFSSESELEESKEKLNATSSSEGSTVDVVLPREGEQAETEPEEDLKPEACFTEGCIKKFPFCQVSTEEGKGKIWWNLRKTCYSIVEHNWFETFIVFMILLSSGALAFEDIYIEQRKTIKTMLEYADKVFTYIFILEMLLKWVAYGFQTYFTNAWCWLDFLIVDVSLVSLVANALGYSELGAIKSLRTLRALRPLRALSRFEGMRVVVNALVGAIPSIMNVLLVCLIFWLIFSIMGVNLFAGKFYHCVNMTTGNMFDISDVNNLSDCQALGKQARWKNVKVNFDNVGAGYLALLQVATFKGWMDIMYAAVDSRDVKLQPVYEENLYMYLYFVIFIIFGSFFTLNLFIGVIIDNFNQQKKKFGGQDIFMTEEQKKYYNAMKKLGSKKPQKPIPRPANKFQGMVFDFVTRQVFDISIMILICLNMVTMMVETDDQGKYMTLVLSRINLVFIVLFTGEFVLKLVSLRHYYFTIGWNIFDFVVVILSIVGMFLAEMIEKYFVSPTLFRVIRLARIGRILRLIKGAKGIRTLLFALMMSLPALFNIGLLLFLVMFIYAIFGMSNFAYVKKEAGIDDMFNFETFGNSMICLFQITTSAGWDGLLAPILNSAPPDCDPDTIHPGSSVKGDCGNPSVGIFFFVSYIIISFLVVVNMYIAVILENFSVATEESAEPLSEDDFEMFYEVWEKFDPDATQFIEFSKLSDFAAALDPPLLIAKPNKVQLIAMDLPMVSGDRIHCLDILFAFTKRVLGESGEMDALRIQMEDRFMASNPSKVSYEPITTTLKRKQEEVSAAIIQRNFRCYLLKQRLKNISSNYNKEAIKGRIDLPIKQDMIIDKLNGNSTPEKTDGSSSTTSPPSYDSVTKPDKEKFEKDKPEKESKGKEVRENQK

For experiment [2] the following is noted: neuropathic pain, modest efficacy; cited from earlier work.
The target in another experiment is NaV1.8 (Homo sapiens, UniProt Q9Y5Y9). Conditions: read-out: TTX IC50; cited from earlier work.
The target of experiment [3] is T1, NaV1.3. Conditions: read-out: TTX IC50; cited from earlier work.
Target sequence in this assay (Q9NY46 whole entry, looked up): as the sequence (Q9NY46 whole entry) above

Chain of NaV1.8 (Q9Y5Y9 whole entry, looked up): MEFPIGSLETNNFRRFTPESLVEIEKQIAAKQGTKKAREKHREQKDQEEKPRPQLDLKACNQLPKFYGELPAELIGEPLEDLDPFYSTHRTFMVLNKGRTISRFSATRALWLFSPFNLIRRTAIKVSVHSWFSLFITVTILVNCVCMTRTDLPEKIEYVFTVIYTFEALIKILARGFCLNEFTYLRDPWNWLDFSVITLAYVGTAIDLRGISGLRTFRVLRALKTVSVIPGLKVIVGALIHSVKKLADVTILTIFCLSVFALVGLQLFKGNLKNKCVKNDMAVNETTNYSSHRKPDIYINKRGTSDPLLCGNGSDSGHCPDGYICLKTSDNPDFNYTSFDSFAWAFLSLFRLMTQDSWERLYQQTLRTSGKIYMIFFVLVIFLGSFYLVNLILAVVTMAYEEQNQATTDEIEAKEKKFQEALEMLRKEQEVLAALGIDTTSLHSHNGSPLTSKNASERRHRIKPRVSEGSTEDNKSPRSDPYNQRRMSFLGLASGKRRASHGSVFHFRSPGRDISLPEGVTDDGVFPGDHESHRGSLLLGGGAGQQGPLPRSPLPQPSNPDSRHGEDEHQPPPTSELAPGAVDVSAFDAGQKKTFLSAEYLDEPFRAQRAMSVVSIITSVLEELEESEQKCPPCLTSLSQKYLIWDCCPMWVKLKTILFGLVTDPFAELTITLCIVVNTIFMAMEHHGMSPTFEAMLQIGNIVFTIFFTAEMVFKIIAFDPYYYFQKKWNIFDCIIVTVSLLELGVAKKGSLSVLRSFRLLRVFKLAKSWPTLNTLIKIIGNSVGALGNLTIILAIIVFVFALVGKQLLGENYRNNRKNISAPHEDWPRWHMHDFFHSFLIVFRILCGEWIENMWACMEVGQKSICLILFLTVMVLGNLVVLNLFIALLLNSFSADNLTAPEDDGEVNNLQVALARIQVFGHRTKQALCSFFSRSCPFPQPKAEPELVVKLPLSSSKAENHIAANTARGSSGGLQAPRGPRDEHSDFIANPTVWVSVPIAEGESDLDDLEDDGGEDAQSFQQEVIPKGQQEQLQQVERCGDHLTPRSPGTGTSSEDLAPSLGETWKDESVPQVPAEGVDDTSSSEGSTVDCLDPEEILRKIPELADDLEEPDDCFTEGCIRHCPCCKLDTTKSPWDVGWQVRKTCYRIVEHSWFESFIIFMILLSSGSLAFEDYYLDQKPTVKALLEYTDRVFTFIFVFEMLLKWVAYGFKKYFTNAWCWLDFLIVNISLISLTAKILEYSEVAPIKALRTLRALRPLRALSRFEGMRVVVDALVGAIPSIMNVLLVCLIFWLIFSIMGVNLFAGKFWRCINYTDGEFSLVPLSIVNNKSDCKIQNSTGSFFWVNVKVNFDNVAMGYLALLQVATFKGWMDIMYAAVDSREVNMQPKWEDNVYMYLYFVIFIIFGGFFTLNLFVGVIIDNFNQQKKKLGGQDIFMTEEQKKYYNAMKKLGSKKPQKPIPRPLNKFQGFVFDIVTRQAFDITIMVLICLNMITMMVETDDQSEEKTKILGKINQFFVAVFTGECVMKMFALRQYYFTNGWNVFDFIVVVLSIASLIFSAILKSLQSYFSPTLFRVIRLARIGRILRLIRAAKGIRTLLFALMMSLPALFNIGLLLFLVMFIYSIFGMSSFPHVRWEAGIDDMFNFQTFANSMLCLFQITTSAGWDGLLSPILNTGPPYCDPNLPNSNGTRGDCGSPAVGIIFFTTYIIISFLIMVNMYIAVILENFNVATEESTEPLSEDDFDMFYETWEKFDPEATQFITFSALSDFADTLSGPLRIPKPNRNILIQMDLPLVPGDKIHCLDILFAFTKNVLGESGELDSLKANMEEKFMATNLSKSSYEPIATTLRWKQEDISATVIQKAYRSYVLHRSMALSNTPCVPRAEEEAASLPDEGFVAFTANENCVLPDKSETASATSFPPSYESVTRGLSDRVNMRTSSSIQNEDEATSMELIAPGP

As a reminder, the IC50 is the midpoint of a concentration-inhibition curve. For `Cc1cnc(NS(=O)(=O)c2ccc3c(c2)CC(CCOc2ccc(Cl)cc2Cl)C(=O)N3)s1` (stereo not shown) [Compound 7], on NaV1.3 [1], the concentration for half-maximal inhibition (IC50) was in the range of 5 to 20 µM.
Turning to `Cc1nnc(NS(=O)(=O)c2ccc3c(c2)CC(CCOc2ccc(Cl)cc2Cl)C(=O)N3)s1` (stereo not shown) [Compound 11, 3-[2-(2,4-Dichloro-phenoxy)-ethyl]-2-oxo-1,2,3,4-tetrahydro-quinoline-6-sulfonic acid (5-methyl-[1,3,4]thiadiazol-2-yl)-amide], the IC50 at NaV1.3 [1] was in the range of 5 to 20 µM.
Take `O=C1Nc2ccc(S(=O)(=O)Nc3nnc(C4CC4)s3)cc2CC1CCOc1ccc(Cl)cc1Cl` (stereo not shown) [Compound 9]: the half-maximal inhibitory concentration (IC50) at NaV1.3 [1] was 5 to 20 µM.
As for `O=C1Nc2ccc(S(=O)(=O)Nc3ccccn3)cc2CC1CCOc1ccc(Cl)cc1Cl` (stereo not shown) [Compound 8], the IC50 at NaV1.3 [1] lay in the range of 5 to 20 µM.
The same measure, in the same setting: the figure for `O=C1Nc2ccc(S(=O)(=O)Nc3nc[nH]n3)cc2CC1CCOc1ccc(Cl)cc1Cl` (stereo not shown) [Compound 14] is 5 to 20 µM; for `Cc1csc(NS(=O)(=O)c2ccc3c(c2)CC(CCOc2ccc(Cl)cc2Cl)C(=O)N3)n1` (stereo not shown) [Compound 16] it is 5 to 20 µM; for `O=C1Nc2ccc(S(=O)(=O)Nc3nc4ccccc4s3)cc2CC1CCOc1ccc(Cl)cc1Cl` (stereo not shown) [Compound 5, 3-[2-(2,4-Dichloro-phenoxy)-ethyl]-2-oxo-1,2,3,4-tetrahydro-quinoline-6-sulfonic acid benzothiazol-2-ylamide] it is 5 to 20 µM.
With `NCC1(CC(=O)O)CCCCC1` [Gabapentin], the “share of patients in which it works” value in experiment [2] was 60%.
Take `NC1=N[C@H](O)[C@H]2[C@H]3O[C@]4(O)O[C@@H]([C@@H](O)[C@@]2(N1)[C@@H]4O)[C@]3(O)CO` [TTX, tetrodotoxin]: the IC50 at NaV1.8 is over 50 µM; on NaV1.3 [3] it was 0.015 µM.
For `Cc1cc(C)nc(NS(=O)(=O)c2ccc3c(c2)CC(CCOc2ccc(Cl)cc2Cl)C(=O)N3)n1` (stereo not shown) [Compound 4], the IC50 on NaV1.3 [1] fell in the range of 5 to 20 µM.
Same read-out and setting: the figure for `Cc1ccnc(NS(=O)(=O)c2ccc3c(c2)CC(CCOc2ccc(Cl)cc2Cl)C(=O)N3)n1` (stereo not shown) [Compound 10, 3-[2-(2,4-Dichloro-phenoxy)-ethyl]-2-oxo-1,2,3,4-tetrahydro-quinoline-6-sulfonic acid (4-methyl-pyrimidin-2-yl)-amide] is 5 to 20 µM; for `O=C1Nc2ccc(S(=O)(=O)Nc3nnc(-c4ccccc4)s3)cc2CC1CCOc1ccc(Cl)cc1Cl` (stereo not shown) [Compound 2] it is 5 to 20 µM.
On the same count and under the same terms, the figure for `COc1nc(NS(=O)(=O)c2ccc3c(c2)CC(CCOc2ccc(Cl)cc2Cl)C(=O)N3)ns1` (stereo not shown) [Compound 13] is 5 to 20 µM.
In the case of `O=C1Nc2ccc(S(=O)(=O)Nc3ncccn3)cc2CC1CCOc1ccc(Cl)cc1Cl` (stereo not shown) [Compound 15], the IC50 on NaV1.3 [1] was in the range of 5 to 20 µM.
For the compound `O=C1Nc2ccc(S(=O)(=O)Nc3cnsn3)cc2CC1CCOc1ccc(Cl)cc1Cl` (stereo not shown) [Compound 6], on NaV1.3 [1], the IC50 was in the range of 5 to 20 µM.
On the same count and under the same terms, the figure for `O=C1Nc2ccc(S(=O)(=O)Nc3nncs3)cc2CC1CCOc1ccc(Cl)cc1Cl` (stereo not shown) [Compound 1] is 5 to 20 µM; for `O=C1Nc2ccc(S(=O)(=O)Nc3nc(-c4ccccc4)ns3)cc2CC1CCOc1ccc(Cl)cc1Cl` (stereo not shown) [Compound 12] it is 5 to 20 µM; for `O=C1Nc2ccc(S(=O)(=O)Nc3nccs3)cc2CC1CCOc1ccc(Cl)cc1Cl` (stereo not shown) [Compound 3] it is 5 to 20 µM.
